From US9783503B2, “Crystalline forms of an estrogen receptor modulator” (Genentech, Inc., priority 2014, dated 2017)
Entries after “also recorded” stand apart in the source; their conditions may differ. Structures can show the parent of a compound that is named as a salt.

Key:
[1] = tested on: xenograft models of ER+ breast cancer; test: Tamoxifen-sensitive and tamoxifen-resistant xenograft models of ER+ breast cancer; format: in vivo
[2] = Oral bioavailability; conditions: in vivo
[3] = tested on: breast tumor cell; test: Breast tumor cell proliferation; format: cell-based
[4] = Static storage stability at elevated humidity, checked by XRPD; format: physicochemical
Excerpt: X-Ray powder diffraction patterns were collected on a Bruker AXS C2 GADDS or a Bruker AXS D8 Advance diffractometer.

[5] = Gravimetric Vapor Sorption (GVS); format: physicochemical
Protocol: Sorption isotherms were obtained using a SMS DVS Intrinsic moisture sorption analyzer, controlled by DVS Intrinsic Control software v1.0.0.30. The sample temperature was maintained at 25° C. by the instrument controls. The humidity was controlled by mixing streams of dry and wet nitrogen, with a total flow rate of 200 mL/min. The relative humidity was measured by a calibrated Rotronic probe (dynamic range of 1.0-100% RH), located near the sample. The weight change, (mass relaxation) of the sample as a function of % RH was constantly monitored by the microbalance (accuracy+0.005 mg).
Typically 5-20 mg of sample was placed in a tared mesh stainless steel basket under ambient conditions. The sample was loaded and unloaded at 40% RH and 25° C. (typical room conditions). A moisture sorption isotherm was performed as outlined below (2 scans giving 1 complete cycle). The standard isotherm was performed at 25° C. at 10% RH intervals over a 0-90% RH range. Data analysis was undertaken in Microsoft Excel using DVS Analysis Suite v6.0.0.7.
The sample was recovered after completion of the isotherm and re-analyzed by XRPD.

[6] = Thermodynamic aqueous solubility; conditions: for solubility at 24 h: water, 25 °C, thermodynamic from solid
Protocol: The suspension was equilibrated at 25° C. for 24 hours then the pH was measured. The suspension was then filtered through a glass fibre C filter. […] Different volumes of the standard, diluted and undiluted sample solutions were injected.
Analysis was performed on an Agilent HP1100 series system equipped with a diode array detector and using ChemStation software vB.02.01-SR1.

SMILES: CC/C(=C(/c1ccc(/C=C/C(=O)O)cc1)c1ccc2[nH]ncc2c1)c1ccc(F)cc1Cl [(E)-3-(4-((E)-2-(2-Chloro-4-fluorophenyl)-1-(1H-indazol-5-yl)but-1-en-1-yl)phenyl)acrylic acid]
- anti-tumor activity ([1]; both tamoxifen-sensitive and tamoxifen-resistant xenograft models): dose dependent anti-tumor activity
- ER-α tumor levels ([1]; tamoxifen-resistant xenograft models): reduction of ER-α tumor levels
- Efficacious doses ([1]; xenograft models of ER+ breast cancer): 1 to 100 mg/kg/day
- oral bioavailability [2]: good oral bioavailability
- breast tumor cell proliferation [3]: inhibition of breast tumor cell proliferation

SMILES: CC/C(=C(/c1ccc(/C=C/C(=O)O)cc1)c1ccc2[nH]ncc2c1)c1ccc(F)cc1Cl [Form 1, (E)-3-(4-((E)-2-(2-chloro-4-fluorophenyl)-1-(1H-indazol-5-yl)but-1-en-1-yl)phenyl)acrylic acid, N-methyl glucamine salt]
- change of XRPD pattern after storage ([4]; 25° C. and 96% RH for 7 days): no visible change; also recorded: No difference in the XRPD patterns
- change of XRPD pattern after storage ([4]; 40° C. and 75% RH for 7 days): no visible change; also recorded: no difference in the XRPD patterns
- change by XRPD upon extended storage ([4]; extended storage in high humidity conditions at 40° C.): no visible change
- hysteresis of sorption isotherm ([5]; 0-90% RH, 25° C.): no hysteresis
- change of XRPD pattern after GVS analysis ([5]; after completion of the isotherm): No change in the XRPD pattern
- mass uptake ([5]; between 0-90% RH, 25° C.): ca. 4.75%
- pH of saturated aqueous solution ([6]; saturated aqueous solution, 25° C., 24 hours): about 5.45
- solubility at 24 h ([6]; pH 5.45, water, aqueous solubility, saturated aqueous solution, equilibrated at 25° C. for 24 hours): 15.8 mg/mL

SMILES: CC/C(=C(/c1ccc(/C=C/C(=O)O)cc1)c1ccc2[nH]ncc2c1)c1ccc(F)cc1Cl [N-Methylglucamine, (2S,3R,4R,5R)-2,3,4,5,6-pentahydroxy-N-methylhexan-1-aminium (E)-3-(4-((E)-2-(2-chloro-4-fluorophenyl)-1-(1H-indazol-5-yl)but-1-enyl)phenyl)acrylate]
- solubility at 24 h ([6]; Solubility, aqueous, crystalline salt prepared from MeCN (300 Vols)): 10.6 mg/mL

SMILES: CC/C(=C(/c1ccc(/C=C/C(=O)O)cc1)c1ccc2[nH]ncc2c1)c1ccc(F)cc1Cl [Pattern 2, (E)-3-(4-((E)-2-(2-chloro-4-fluorophenyl)-1-(1H-indazol-5-yl)but-1-en-1-yl)phenyl)acrylic acid, N-methyl glucamine salt]
- change of XRPD pattern after storage ([4]; 40° C. and 75% RH for 7 days): converted to Form 1

SMILES: C[C@]12CC[C@@H]3c4ccc(O)cc4C[C@@H](CCCCCCCCC[S+]([O-])CCCC(F)(F)C(F)(F)F)[C@H]3[C@@H]1CC[C@@H]2O (stereo partly shown) [fulvestrant, reference compound]
- efficacy compared with the free acid ([1]; in some of these models): less efficacious
